The text below walks through data of PubChem BioAssay (NCI).

Structures are written as SMILES.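 Where inhibition never reached the appropriate level, the endpoint shown equals the highest concentration tested. Otherwise, values were interpolated linearly from a five-concentration, 48-hour dose response in 96-well plates. GI50 marks 50% less growth. TGI marks complete inhibition of growth.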

Common to all, as to test: DTP human tumour cell line panel, 48 h
For test [1], the system named is EKVX NSCLC.
The test system of test [2] is UO-31 renal.
Test [3] relates to LOX IMVI melanoma.
Test [4] has as its system OVCAR-3 ovarian.
The subject of test [5] is HCT-116 colon.
The test system of test [6] is HT29 colon.
In test [7] the test system is HS 578T breast.
Test [8] deals with 786-0 renal.
The test system of test [9] is KM12 colon.
In test [10] the test system is SK-MEL-5 melanoma.

Usually GI50 stands for the concentration that inhibits growth by half. In general, TGI refers to the concentration at which net growth stops. Consider `C=CC(=O)Nc1cccc(Oc2nc(Nc3ccc(N4CCN(C)CC4)cc3OC)ncc2Cl)c1`, for which the GI50 in test [1] was 0.363 µM; in test [2] it was 1.03 µM; in test [3], 1.58 µM; in [4] it was 1.7 µM; in [5] it was 1.64 µM; in test [6], 2.08 µM. Also, the GI50 in [7] was 1.86 µM; in test [8] it was 1.47 µM; in test [9] it was 3.46 µM; in test [10], 1.89 µM. Moreover, the TGI came to 3.38 µM in test [1]; 2.32 µM in test [2]; 2.99 µM in test [3]; 4.44 µM in test [4]; 3.06 µM in test [5]; 4.53 µM in [6]. The concentration for total growth inhibition (TGI) amounted to 5.39 µM in test [7], 2.94 µM in test [8], 11.2 µM in [9] and 3.92 µM in [10].

For `C=C1C(=O)O[C@H]2[C@H]1CC/C(CNC(=O)/C=C/c1ccccc1F)=C\CC[C@@]1(C)O[C@@H]21`, the GI50 in test [1] is 1.89 µM; in test [2], 1.34 µM; in [3], 1.19 µM; in test [4] it was 0.691 µM; in test [5], 0.482 µM; in test [6], 1.22 µM. Moreover, the GI50 was 2.42 µM in test [7], 1.59 µM in [8], 4.4 µM in [9] and 1.78 µM in test [10]. In addition, the TGI amounted to 5.95 µM in test [1]; 2.91 µM in test [2]; 2.56 µM in test [3]; 2.1 µM in test [4]; 1.69 µM in test [5]; 3.08 µM in [6]. Further, the TGI was determined as 16.9 µM in [7], 3.71 µM in test [8], 17.3 µM in test [9] and 3.29 µM in test [10].

Turning to `CN(C)Cc1c(C(=O)NCCOc2ccc(C(=O)NO)cc2)oc2ccccc12`, the GI50 in [1] is 0.346 µM; in test [2] it was 0.296 µM; in test [3] it was 0.289 µM; in test [4] it was 0.272 µM; in [5], 0.0705 µM; in [6] it was 0.205 µM. Besides, the GI50 is 0.158 µM in test [7], 0.405 µM in test [8], 0.312 µM in [9] and 0.159 µM in test [10]. Moreover, the TGI in test [1] was greater than 100 µM; in test [2], 2.66 µM; in test [3], 1.11 µM; in [4], 0.969 µM; in [5], 0.502 µM; in test [6], 1.36 µM. For the same compound, the TGI amounted to 0.851 µM in [7], 9.16 µM in test [8], 2.34 µM in test [9] and 0.347 µM in [10].

On to `NC(=O)c1cc(Br)ccc1NC(=O)/C=C/c1ccccc1`, for which the GI50 in [1] was 3.27 µM; in test [2], 3.37 µM; in test [3] it was 10.6 µM; in test [4], 0.887 µM; in test [5], 1.24 µM; in test [6] it was 0.914 µM. Moreover, the GI50 in test [7] was 1.09 µM; in test [8], 3.72 µM; in [9], 1.09 µM; in test [10], 0.608 µM. The total growth inhibition concentration (TGI) is greater than 100 µM in [1]; greater than 100 µM in test [2]; greater than 100 µM in [3]; 4.21 µM in test [4]; greater than 100 µM in test [5]; greater than 100 µM in [6]. Also, the TGI is 6.27 µM in test [7], greater than 34.8 µM in [8], greater than 100 µM in test [9] and greater than 60.2 µM in [10].

`CN(C)CCOc1ccccc1NC1=C(Cl)C(=O)C(Nc2ccccc2OCCN(C)C)=C(Cl)C1=O`: the GI50 is 5.33 µM in test [1]; 0.735 µM in test [2]; 0.592 µM in [3]; 0.444 µM in [4]; 0.518 µM in [5]; 0.83 µM in [6]. Besides, the GI50 in test [7] is 29.5 µM; in test [8], 1.64 µM; in test [9] it was 20.9 µM. Besides, the TGI in test [1] came to 19.1 µM; in [2], 2.22 µM; in test [3], 1.25 µM; in [4], 0.879 µM; in test [5] it was 1.01 µM; in test [6], 3.5 µM. For the same compound, the TGI in [7] is greater than 83.1 µM; in test [8] it was 5.92 µM; in test [9], greater than 100 µM; in test [10], greater than 23.8 µM.

With `O=c1oc2ccc(Br)cc2c(=O)n1-c1ccc(Cl)cc1F`, the GI50 in [1] is 1.45 µM; in [2] it was 0.349 µM; in [3], 0.827 µM; in [4] it was 0.641 µM; in [5], 1.14 µM; in test [6], 3.35 µM. In addition, the GI50 in test [7] is 0.553 µM; in test [8], 2.38 µM; in test [9], 2.03 µM; in test [10], 0.323 µM. Moreover, the TGI is 7.81 µM in test [1]; 3.03 µM in test [2]; 4.54 µM in [3]; 8.85 µM in [4]; 4.33 µM in test [5]; greater than 34 µM in test [6]. Further, the concentration for total growth inhibition (TGI) in test [7] came to 5.69 µM; in test [8], 7.11 µM; in [9], 4.87 µM; in test [10] it was 1.08 µM.

Turning to `Cc1ccccc1C(C(=O)NC1CCCCC1)N(C(=O)CNc1ccc(C#N)cc1)c1cccc(F)c1` (centres undefined), the GI50 was 42.5 µM in [1]; greater than 93.5 µM in [2]; 44.9 µM in test [3]; greater than 63 µM in test [4]; 13.6 µM in test [5]; greater than 100 µM in test [6]. For the same compound, the GI50 was 7.05 µM in test [7], 17.3 µM in [8], greater than 100 µM in test [9] and greater than 71.2 µM in test [10]. Also, the TGI in test [1], in [2], in test [3], in test [4], in test [5] and in [6] was greater than 100 µM throughout. Further, the TGI in test [7] is 67.4 µM; in test [8], greater than 67.9 µM; in [9], greater than 100 µM; in [10] it was greater than 100 µM.

For the compound `NC(N)=Nc1ccc(/C=C2\C=Cc3ccccc32)cc1`, the GI50 in test [1] was 4.74 µM; in test [2], 2.15 µM; in test [3], 1.63 µM; in test [4] it was 3.05 µM; in [5], 1.55 µM; in [6], 2.05 µM. For the same compound, the GI50 in test [7] is 5.38 µM; in test [8] it was 3.22 µM; in [9], 1.85 µM; in test [10], 4.5 µM. The TGI in [1] came to 22.2 µM; in [2], 6.58 µM; in [3] it was 3.02 µM; in test [4] it was 8.93 µM; in [5], 2.93 µM; in test [6] it was 4.11 µM. In addition, the TGI is 28.6 µM in test [7], 14.8 µM in test [8], 3.51 µM in test [9] and 17.8 µM in test [10].

Take `COc1ccc(Cn2cc3c(c2-c2cc(OC)c(OC)c(OC)c2)CCc2c(CO)noc2-3)cc1`: the GI50 in test [1] was 0.644 µM; in test [2], 0.639 µM; in test [3], 0.615 µM; in test [4], 0.312 µM; in [5], 0.311 µM; in test [6] it was 0.323 µM. Moreover, the GI50 in [7] was 0.371 µM; in [8] it was 0.493 µM; in [9] it was 0.341 µM; in test [10] it was 0.334 µM. Also, the TGI in [1] is greater than 76.9 µM; in [2], 22.4 µM; in test [3], 16.6 µM; in test [4], 12.9 µM; in test [5], 11.4 µM; in test [6], 13 µM. Moreover, the TGI in test [7] turned out to be 35.8 µM; in [8] it was 24.7 µM; in [9], 17.9 µM; in test [10] it was 11.9 µM.

In the case of `O=C1c2cc(F)ccc2-c2c1c1ccc([N+](=O)[O-])cc1c(=O)n2CCCBr`, the GI50 is greater than 100 µM in [1]; 13.9 µM in test [2]; 7.62 µM in test [3]; 46.8 µM in [4]; 7.23 µM in test [5]; 19.6 µM in test [6]. Moreover, the GI50 in test [7] was greater than 100 µM; in test [8], 1.96 µM; in [9] it was 20.9 µM; in [10], 11.7 µM. The TGI in [1] is greater than 100 µM; in test [2], greater than 100 µM; in test [3] it was 38.2 µM; in test [4] it was greater than 100 µM; in [5], 36.7 µM; in test [6] it was greater than 100 µM. The TGI was greater than 100 µM in test [7], 9.31 µM in test [8], greater than 100 µM in test [9] and 40.3 µM in [10].

Consider `Cc1ccsc1-c1ccc2c(c1)COC2(CCCN(C)C)c1ccc(F)cc1` (centres undefined), for which the GI50 in test [1] was 4.64 µM; in test [2] it was 1.7 µM; in test [3], 1.64 µM; in [4], 2.64 µM; in test [5] it was 1.88 µM; in test [6], 2.29 µM. Also, the GI50 is 2.39 µM in test [7], 2.54 µM in [8], 3.13 µM in [9] and 1.78 µM in test [10]. The TGI in [1] turned out to be 18.5 µM; in [2], 6.26 µM; in test [3], 3.04 µM; in test [4], 9.02 µM; in test [5], 3.7 µM; in test [6] it was 8.45 µM. The TGI is 9.07 µM in test [7], 7.97 µM in test [8], 10.9 µM in test [9] and 3.2 µM in test [10].

On to `Cc1cccc(Cl)c1NC(=O)c1cnc(Nc2cc(N3CCOCC3)cc(S(C)(=O)=O)c2)s1`, for which the GI50 in [1] is 1.24 µM; in [2], 0.199 µM; in test [3] it was 0.0977 µM; in test [4], 0.476 µM; in [5], 0.313 µM; in [6] it was 0.203 µM. In addition, the GI50 is 0.138 µM in test [7], 0.171 µM in [8], greater than 10 µM in test [9] and greater than 8.89 µM in [10]. Besides, the total growth inhibition concentration (TGI) in [1] is greater than 10 µM; in test [2], greater than 6.98 µM; in [3], 0.938 µM; in test [4], greater than 10 µM; in test [5] it was greater than 10 µM; in [6], 0.663 µM. Moreover, the TGI in test [7] is 0.826 µM; in test [8], greater than 5.31 µM; in test [9] it was greater than 10 µM; in [10], greater than 10 µM.

For the compound `COc1ccc(-c2cn(-c3cc(OC)c(OC)c(OC)c3)c(=O)[nH]2)cc1OC`, the GI50 in [1], in test [2], in [3], in test [4], in [5] and in [6] was greater than 100 µM in each case. Also, the GI50 is 20.2 µM in test [7], greater than 100 µM in test [8], greater than 100 µM in test [9] and greater than 100 µM in [10]. In addition, the TGI in test [1], in test [2], in test [3], in test [4], in [5] and in test [6] was greater than 100 µM in each case. Moreover, the TGI in test [7], in test [8], in test [9] and in test [10] was greater than 100 µM in each case.

For the compound `C=CC(=O)N1CC[C@H](n2nc(C#Cc3cc(OC)cc(OC)c3)c3c(N)ncnc32)C1`, the GI50 was 30.7 µM in test [1]; 1.32 µM in test [2]; 5.72 µM in [3]; 4.13 µM in [4]; 6.04 µM in test [5]; 13.9 µM in test [6]. Moreover, the GI50 was 1.71 µM in test [7], 2.24 µM in test [8], 11.2 µM in [9] and 9.57 µM in test [10]. The TGI in test [1], in test [2], in [3], in [4], in [5] and in test [6] was greater than 100 µM each time. For the same compound, the TGI is 9.82 µM in test [7], greater than 100 µM in test [8], greater than 100 µM in test [9] and 67.8 µM in test [10].
